From patent US9540373B2, “Substituted spirocycles” (Boehringer Ingelheim International GmbH, priority 2014, dated 2017) come the findings set out here.

Data set [1] relates to neutrophil elastase activity in U937 cells. Kind of data set: Determination of neutrophil elastase activity in U937 cytosolic lysate preparation after incubation with test compound. The data set is classed as cell-based. As to conditions: Homo sapiens, U-937; U937 cells incubated 48 hours with compound, NE activity in lysate; read-out: Reduction of NE-activity in U937 cells IC50. As for the experimental part: Determination of Neutrophil Elastase Activity in U937 Cytosolic Lysate Preparation after Incubation with Test Compound Materials:
24 well Nunclon cell culture plates (No. 142475) and 96 well plates (No. 267245) were from Nunc.
Dimethylsulfoxid (DMSO) was from Sigma (Prod. No. D8418). Nonidet-P40 (NP40) was from USBiological (Prod. No. N3500)
Substrate, specific for Neutrophil elastase, was from Bachem (MeOSuc-Ala-Ala-Pro-Val-AMC; Prod. No. I-1270).
Human neutrophil elastase was from Calbiochem (Prod. No. 324681)
Tris-buffer (100 mM Tris; 1M NaCl; pH 7.5)
Tris-buffer+HSA 0.1%; Human Serum Albumin from Calbiochem (Cat#. 126658)
Serine-protease buffer (20 mM Tris; 100 mM NaCl; pH 7.5)+0.1% HSA
Serine protease lysis buffer: 20 mM Tris-HCl; 100 mM NaCl pH 7.5; +0.2% Nonidet-P40;
PBS: phosphate buffered saline, without Ca and Mg, from Gibco
U937 from ECACC (Cat. No. 85011440) cultured in suspension at 37° C. and 5% CO2.
Cell density: 0.2-1 Mio. Cells/ml.
Medium: RPMI1640 GlutaMAX (No. 61870) with 10% FCS from Gibco
Cell Seeding and Treatment:
Compounds in 100% DMSO were diluted in Medium (−FCS) with 10% DMSO and further diluted according to the experiment planned.
20 μl of the compound solution was transferred in the respective wells of the 24 well plate and diluted with 2 ml cell suspension/well containing 1×10^5 cells/ml (final concentration of DMSO=0.1%). Compound dilution factor=100
Compounds (up to 7 concentrations) were tested in triplicates with 3 wells for the DMSO 0.1% control, incubated for 48 hours without medium change at 37° C., 5% CO2 and 95% relative humidity.
Cell Harvesting and Cell Lysate:
Transfer the cell suspension in 2 ml 96 well assay block. Separate cells from medium by centrifugation (500×g; 10 min; RT); discard the supernatant. Resuspend in 1 ml PBS; centrifugation (500×g; 10 min; RT); wash cells twice with PBS. Add 80 μl Serine protease lysis buffer (ice cold) to the cell pellet; resuspend the pellet and store on ice for 10 minutes. Remove debris by centrifugation at 1000×g for 10 min at 4° C. Transfer 80-100 μl lysate supernatant in 96 well plate and store immediately at −80° C.
Neutrophil Elastase Activity Assay:
Frozen lysates were thaw at 37° C. for 10 minutes and stored on ice. Protein content was determined with Bradford protein assay. Lysates were diluted to 0.2-0.5 mg/ml protein in serine protease buffer+HSA.
Standard: NE (100 μg/ml stock solution in Tris-buffer; stored at −80° C.) was diluted in Tris-buffer+HSA to 750 ng/ml, and further serially diluted 1:2 for the standard curve. Buffer, blank, standard and lysate samples were transferred into 384 well plate
Blank: 5 μl Tris-buffer+10 μl Serine protease buffer+5 μl Substrate
Standard: 5 μl Tris-buffer+10 μl NE (diff. conc.)+5 μl Substrate
Lysate: 5 μl Tris-buffer+10 μl Lysat+5 μl Substrate
The increase in fluorescence (Ex360 nm/Em 460 nm) is determined after 30 minutes with a Molecular Device Spectramax M5 Fluorescence Reader. The result is interpolated to ng/mg lysate protein using excel formula functions. Percent inhibition in the compound-treated lysate samples is calculated relative to the DMSO-treated control-sample (100−(compound-sample*100)/control-sample)
A test compound will give values between 0% and 100% inhibition of neutrophil elastase. IC50 is calculated using Graphpad Prism; nonlinear fitting (log(inhibitor) vs. response—Variable slope). The IC50 value is interpolated as the concentration of test compound which leads to a neutrophil elastase activity reduction of 50% (relative to the DMSO-treated control).

Data set [2] is described as follows: Determination of metabolic stability with human liver microsomes. The conditions noted are these: pH 7.6; pooled human liver microsomes, 1 mg/ml protein, 1 μM compound, 37° C., NADPH; read-out: In vitro stability in human liver microsome incubations t1/2. The data set is classed as in vitro ADME. The protocol:
Determination of Metabolic Stability with Human Liver Microsomes
The metabolic degradation of the test compound is assayed at 37° C. with pooled human liver microsomes. The final incubation volume of 100 μl per time point contains TRIS buffer pH 7.6 (0.1 M), magnesium chloride (5 mM), microsomal protein (1 mg/ml) and the test compound at a final concentration of 1 μM. Following a short preincubation period at 37° C., the reactions are initiated by addition of beta-nicotinamide adenine dinucleotide phosphate, reduced form (NADPH, 1 mM) and terminated by transferring an aliquot into acetonitrile after different time points. Additionally, the NADPH-independent degradation is monitored in incubations without NADPH, terminated at the last time point. The [%] remaining test compound after NADPH independent incubation is reflected by the parameter c (control) (metabolic stability). The quenched incubations are pelleted by centrifugation (10′000 g, 5 min.) An aliquot of the supernatant is assayed by LC-MS/MS for the amount of parent compound.
The half-life (t1/2 INVITRO) is determined by the slope of the semilogarithmic plot of the concentration-time profile. The intrinsic clearance (CL_INTRINSIC) is calculated by considering the amount of protein in the incubation: CL_INTRINSIC [μl/min/mg protein]=(ln 2/(half-life [min]*protein content [mg/ml]))*1′000.
In general terms: Microsomes from liver hold many membrane-bound enzymes, among them those of drug oxidation.

Data set [3] addresses recombinant human DPPI (Cathepsin C) (Homo sapiens (Human), UniProt P53634). Kind of data set: Inhibition of human DPPI (Cathepsin C). The data set is classed as biochemical. As to conditions: recombinant human DPPI, substrate Gly-Arg-AMC, pH 6.0; read-out: Inhibition of DPPI IC50. As for the experimental part:
Inhibition of Human DPPI (Cathepsin C)
The analysis of the data was performed by calculating the percentage of fluorescence in the presence of test compound in comparison to the fluorescence of the vehicle control after 20 subtracting the background fluorescence using the following formula: (RFU(sample)−RFU(background))*100/(RFU(control)−RFU(background))
Data from these calculations were used to generate IC50 values for inhibition of DPPI, respectively.

Data set [4] has as its system neutrophil elastase activity in BALF cell lysate. The data set is described as follows: Target engagement mouse model: neutrophil elastase activity in BALF cell lysate after LPS challenge. The data set is classed as in vivo. As to conditions: female Crl:NMRI mice, 0.5 mg/kg bid for 7 days, oral, LPS inhalation challenge. As for the experimental part: Target Engagement Mouse Model Compound Treatment:
To monitor the effect of the test compounds on neutrophil elastase activity in peripheral neutrophils, female Crl:NMRI mice were treated as follows:
Group 1 (6 animals): 0.5 mg/kg test compound in 0.5% Natrosol (pH 2-3)
Group 2 (6 animals): 0.5% Natrosol (pH 2-3)
Group 3 (2 animals): 0.5% Natrosol (pH 2-3)
Test compounds or Natrosol solution were applied on Monday to Friday at 7:00 am and 4:00 pm each day of the first week of the study and on Monday and Tuesday (7:00 am and 4:00 pm) the second week. Test compounds or Natrosol were applied orally.
LPS Challenge and Bronchioalveolar Lavage Preparation: […]
4 hours after the LPS challenge a bronchioalveolar lavage using 2×1 ml Hank's salt solution per animal was prepared from all animals and the cell numbers in the lavage fluid determined using a Sysmex XT-1800i. […]
NE activity in the BALF (bronchioalveolar lavage fluid) cell lysate was measured using the fluorescent NE substrate MeOSuc-Ala-Ala-Pro-Val-AMC (Bachem): 10 μl cell lysate were mixed with 5 μl assay buffer (20 mM Tris pH 7.5, 100 mM NaCl, 0.1% human serum albumin) and 5 μl substrate (1 mM in assay buffer) in a 384 well plate (Optiplate 384f, PerkinElmer). The reaction mixture was incubated for 60 min at room temperature and the fluorescence measured (360 nm excitation, 460 nm emission). […]

A value given as a limit tells only on which side of the number the result lay.

In general, IC50 refers to the concentration that gives 50% inhibition.

Chain of recombinant human DPPI (Cathepsin C) (P53634 231-394): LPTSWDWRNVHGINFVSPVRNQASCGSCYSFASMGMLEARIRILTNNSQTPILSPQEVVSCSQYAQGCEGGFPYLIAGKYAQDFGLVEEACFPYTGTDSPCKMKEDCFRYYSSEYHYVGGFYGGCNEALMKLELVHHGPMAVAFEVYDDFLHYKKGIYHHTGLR
Chain of recombinant human DPPI (Cathepsin C) (P53634 25-134): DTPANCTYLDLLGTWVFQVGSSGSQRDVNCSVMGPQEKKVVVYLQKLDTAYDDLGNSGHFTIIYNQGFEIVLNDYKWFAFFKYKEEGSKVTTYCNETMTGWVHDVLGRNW
Chain of recombinant human DPPI (Cathepsin C) (P53634 395-463): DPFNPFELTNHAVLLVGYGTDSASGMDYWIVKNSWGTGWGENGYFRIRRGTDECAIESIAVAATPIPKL

For `N#C[C@H](Cc1ccc(-c2ccc3c(c2)C2(CCN(C4COC4)CC2)OC3)cc1F)NC(=O)[C@H]1N[C@@H]2CC[C@H]1C2` [Example 1, (1S,2S,4R)—N-[(1S)-1-cyano-2-[2-fluoro-4-[1′-(oxetan-3-yl)spiro[1H-isobenzofuran-3,4′-piperidine]-5-yl]phenyl]ethyl]-3-azabicyclo[2.2.1]heptane-2-carboxamide], the 50% inhibitory concentration (IC50) in data set [1] turned out to be 1 nM; in data set [3], 1.1 nM. Further, the half-life at 1 μM in data set [2] was above 2.17 h. The “Inhibition of neutrophil elastase activity in BALF lysate after the pretreatment with Cathepsin C inhibitor” value in data set [4] worked out at 96%.
Take `N#C[C@H](Cc1ccc(-c2cc3c(cn2)COC32CCN(C3COC3)CC2)cc1F)NC(=O)[C@H]1N[C@@H]2CC[C@H]1C2` [Example 23, (1S,2S,4R)—N-[(1S)-1-cyano-2-[2-fluoro-4-[1′-(oxetan-3-yl)spiro[3H-furo[3,4-c]pyridine-1,4′-piperidine]-6-yl]phenyl]ethyl]-3-azabicyclo[2.2.1]heptane-2-carboxamide]: the figures for the IC50 in data set [1] and in data set [3] were 7.5 nM and 5 nM, respectively. Moreover, the half-life at 1 μM in data set [2] was above 2.17 h.
As to `N#C[C@H](Cc1ccc(-c2ccc3c(n2)C2(CCN(C4COC4)CC2)OC3=O)cc1F)NC(=O)[C@H]1N[C@@H]2CC[C@H]1C2` [Example 24], the IC50 is 6 nM in data set [1] and 2.7 nM in data set [3]. Also, in data set [2], the half-life at 1 μM is above 2.17 h.
In the case of `N#C[C@H](Cc1ccc(-c2ccc3c(n2)C2(CCN(C4COC4)CC2)OC3)cc1F)NC(=O)[C@H]1N[C@@H]2CC[C@H]1C2` [Example 25, (1S,2S,4R)—N-[(1S)-1-cyano-2-[2-fluoro-4-[1′-(oxetan-3-yl)spiro[5H-furo[3,4-b]pyridine-7,4′-piperidine]-2-yl]phenyl]ethyl]-3-azabicyclo[2.2.1]heptane-2-carboxamide], the IC50 in data set [1] was found to be 1.6 nM; in data set [3], 1.8 nM. In addition, the half-life at 1 μM in data set [2] was above 2.17 h. Moreover, the “Inhibition of neutrophil elastase activity in BALF lysate after the pretreatment with Cathepsin C inhibitor” value in data set [4] stood at 94%.
With `CN1CCC2(CC1)OCc1cnc(-c3ccc(C[C@@H](C#N)NC(=O)[C@H]4N[C@@H]5CC[C@H]4C5)c(F)c3)cc12` [Example 26, (1S,2S,4R)—N-[(1S)-1-cyano-2-[2-fluoro-4-(1′-methylspiro[3H-furo[3,4-c]pyridine-1,4′-piperidine]-6-yl)phenyl]ethyl]-3-azabicyclo[2.2.1]heptane-2-carboxamide], the IC50 in data set [1] amounted to 4.6 nM; in data set [3] it was 2 nM. For the same molecule, the half-life at 1 μM in data set [2] is 0.917 h.
In the case of `N#C[C@H](Cc1ccc(-c2ccc3c(c2)C2(CCN(C4COC4)CC2)OC3)cc1F)NC(=O)C12CCC(CC1)CN2` [Example 27, N-[(1S)-1-cyano-2-[2-fluoro-4-[1′-(oxetan-3-yl)spiro[1H-isobenzofuran-3,4′-piperidine]-5-yl]phenyl]ethyl]-3-azabicyclo[2.2.2]octane-4-carboxamide], the IC50 in data set [1] was 0.7 nM; in data set [3] it was 2.9 nM. In addition, the half-life at 1 μM in data set [2] came to 2 h.
